Key:
Assay in all cases: KINOMEscan binding assay
[1] = target: T1, RIPK4 (Homo sapiens, UniProt P57078); details: read-out: % Retention on Solid Support
T1 construct: purchased DiscoveRx KINOMEscan
Method in brief: (§1)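 We profiled i-CDK9 by active-site-directed competitive binding, testing 1 µM and 10 µM against over 400 kinases.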

[2] = target: T2, LRRK2(G2019S) (Homo sapiens, UniProt Q5S007, G2019S); details: 1 µM i-CDK9; read-out: % Retention on Solid Support
T2 construct: purchased DiscoveRx KINOMEscan
Method in brief: as §1

[3] = target: T3, CHEK1 (Homo sapiens, UniProt O14757)
T3 construct: purchased DiscoveRx KINOMEscan
Method in brief: as §1

[4] = target: T4, DCAMKL1 (Homo sapiens, UniProt O15075)
T4 construct: purchased DiscoveRx KINOMEscan
Method in brief: as §1

[5] = target: T5, EGFR(L858R,T790M) (Homo sapiens, UniProt P00533, L858R/T790M)
T5 construct: purchased DiscoveRx KINOMEscan
Method in brief: as §1

[6] = target: T6, EPHB4 (Homo sapiens, UniProt P54760); details: read-out: % Retention on Solid Support
T6 construct: purchased DiscoveRx KINOMEscan
T6 sequence (P54760 16-987): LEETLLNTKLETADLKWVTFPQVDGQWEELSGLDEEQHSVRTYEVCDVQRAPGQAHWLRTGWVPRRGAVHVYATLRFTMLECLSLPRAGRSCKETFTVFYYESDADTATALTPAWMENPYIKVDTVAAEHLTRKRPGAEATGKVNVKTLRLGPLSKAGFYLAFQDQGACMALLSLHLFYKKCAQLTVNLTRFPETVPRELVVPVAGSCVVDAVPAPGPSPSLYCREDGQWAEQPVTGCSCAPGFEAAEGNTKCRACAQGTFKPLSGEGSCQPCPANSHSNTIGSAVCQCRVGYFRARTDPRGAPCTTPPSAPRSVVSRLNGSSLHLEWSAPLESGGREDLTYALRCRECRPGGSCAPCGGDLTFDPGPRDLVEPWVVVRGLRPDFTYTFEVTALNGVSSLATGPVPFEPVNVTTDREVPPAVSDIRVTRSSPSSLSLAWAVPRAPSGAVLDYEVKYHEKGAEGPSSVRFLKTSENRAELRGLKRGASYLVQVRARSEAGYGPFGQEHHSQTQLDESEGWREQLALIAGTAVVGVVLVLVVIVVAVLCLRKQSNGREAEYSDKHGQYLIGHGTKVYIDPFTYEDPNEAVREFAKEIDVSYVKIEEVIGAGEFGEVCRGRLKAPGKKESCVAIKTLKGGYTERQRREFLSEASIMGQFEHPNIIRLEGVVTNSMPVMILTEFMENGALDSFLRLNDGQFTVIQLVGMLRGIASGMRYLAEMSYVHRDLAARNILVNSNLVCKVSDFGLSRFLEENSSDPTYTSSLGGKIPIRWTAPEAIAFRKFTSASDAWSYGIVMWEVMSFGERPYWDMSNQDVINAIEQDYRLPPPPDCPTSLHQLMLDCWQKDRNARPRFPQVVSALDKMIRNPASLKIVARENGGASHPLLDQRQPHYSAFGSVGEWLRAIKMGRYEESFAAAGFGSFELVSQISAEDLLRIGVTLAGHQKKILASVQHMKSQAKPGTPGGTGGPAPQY
Method in brief: as §1

[7] = target: T7, PIK3CA(C420R) (Homo sapiens, UniProt P42336, C420R); details: read-out: % Retention on Solid Support
T7 construct: purchased DiscoveRx KINOMEscan
Method in brief: as §1

[8] = target: T8, HUNK (Homo sapiens, UniProt P57058); details: read-out: % Retention on Solid Support
T8 construct: purchased DiscoveRx KINOMEscan
Method in brief: as §1

[9] = target: T9, MEK2 (Homo sapiens, UniProt P36507); details: read-out: % Retention on Solid Support
T9 construct: purchased DiscoveRx KINOMEscan
Method in brief: as §1

[10] = target: T10, TLK2 (Homo sapiens, UniProt Q86UE8); details: read-out: % Retention on Solid Support
T10 construct: purchased DiscoveRx KINOMEscan
Method in brief: as §1

T1 sequence (P57078 whole entry): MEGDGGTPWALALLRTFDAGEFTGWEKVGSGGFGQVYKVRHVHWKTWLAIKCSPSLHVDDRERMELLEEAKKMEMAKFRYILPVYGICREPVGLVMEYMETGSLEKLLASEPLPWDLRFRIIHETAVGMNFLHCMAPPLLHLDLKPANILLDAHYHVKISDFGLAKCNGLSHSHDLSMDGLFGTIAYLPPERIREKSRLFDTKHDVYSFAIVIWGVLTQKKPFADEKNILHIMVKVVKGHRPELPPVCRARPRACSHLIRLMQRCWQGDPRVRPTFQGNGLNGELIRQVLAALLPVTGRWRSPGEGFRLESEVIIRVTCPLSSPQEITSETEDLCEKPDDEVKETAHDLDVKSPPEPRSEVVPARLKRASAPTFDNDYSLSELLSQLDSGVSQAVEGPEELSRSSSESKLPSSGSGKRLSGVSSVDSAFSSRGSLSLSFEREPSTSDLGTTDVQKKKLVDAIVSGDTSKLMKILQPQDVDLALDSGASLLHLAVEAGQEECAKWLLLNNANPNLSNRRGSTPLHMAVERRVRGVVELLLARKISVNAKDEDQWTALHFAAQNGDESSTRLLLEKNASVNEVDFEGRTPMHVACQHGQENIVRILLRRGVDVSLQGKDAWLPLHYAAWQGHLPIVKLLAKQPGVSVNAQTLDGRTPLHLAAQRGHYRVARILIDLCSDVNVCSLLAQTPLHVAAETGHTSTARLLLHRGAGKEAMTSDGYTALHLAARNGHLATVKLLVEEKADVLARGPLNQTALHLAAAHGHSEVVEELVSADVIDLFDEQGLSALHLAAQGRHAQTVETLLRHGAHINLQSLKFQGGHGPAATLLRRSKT
T4 sequence (O15075 whole entry): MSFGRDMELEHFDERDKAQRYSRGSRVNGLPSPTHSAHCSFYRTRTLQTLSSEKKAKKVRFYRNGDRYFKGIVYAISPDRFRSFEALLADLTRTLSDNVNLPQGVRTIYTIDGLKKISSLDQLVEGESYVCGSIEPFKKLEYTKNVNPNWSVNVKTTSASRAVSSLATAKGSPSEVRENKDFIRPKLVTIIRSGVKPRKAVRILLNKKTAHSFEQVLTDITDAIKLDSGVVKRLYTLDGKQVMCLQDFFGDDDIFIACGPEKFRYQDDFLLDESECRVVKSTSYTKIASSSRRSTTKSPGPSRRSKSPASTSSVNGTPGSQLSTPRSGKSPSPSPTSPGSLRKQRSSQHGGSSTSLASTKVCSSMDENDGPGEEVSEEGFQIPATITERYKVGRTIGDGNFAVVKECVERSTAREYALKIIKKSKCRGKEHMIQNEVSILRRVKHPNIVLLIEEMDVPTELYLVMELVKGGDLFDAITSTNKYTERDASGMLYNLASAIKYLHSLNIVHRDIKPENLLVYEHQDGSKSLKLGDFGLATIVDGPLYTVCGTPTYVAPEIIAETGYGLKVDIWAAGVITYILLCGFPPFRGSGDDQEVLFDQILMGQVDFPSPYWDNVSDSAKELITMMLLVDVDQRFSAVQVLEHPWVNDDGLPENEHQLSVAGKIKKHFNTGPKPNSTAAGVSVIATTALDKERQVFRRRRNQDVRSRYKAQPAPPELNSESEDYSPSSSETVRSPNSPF
T7 sequence (P42336 whole entry C420R): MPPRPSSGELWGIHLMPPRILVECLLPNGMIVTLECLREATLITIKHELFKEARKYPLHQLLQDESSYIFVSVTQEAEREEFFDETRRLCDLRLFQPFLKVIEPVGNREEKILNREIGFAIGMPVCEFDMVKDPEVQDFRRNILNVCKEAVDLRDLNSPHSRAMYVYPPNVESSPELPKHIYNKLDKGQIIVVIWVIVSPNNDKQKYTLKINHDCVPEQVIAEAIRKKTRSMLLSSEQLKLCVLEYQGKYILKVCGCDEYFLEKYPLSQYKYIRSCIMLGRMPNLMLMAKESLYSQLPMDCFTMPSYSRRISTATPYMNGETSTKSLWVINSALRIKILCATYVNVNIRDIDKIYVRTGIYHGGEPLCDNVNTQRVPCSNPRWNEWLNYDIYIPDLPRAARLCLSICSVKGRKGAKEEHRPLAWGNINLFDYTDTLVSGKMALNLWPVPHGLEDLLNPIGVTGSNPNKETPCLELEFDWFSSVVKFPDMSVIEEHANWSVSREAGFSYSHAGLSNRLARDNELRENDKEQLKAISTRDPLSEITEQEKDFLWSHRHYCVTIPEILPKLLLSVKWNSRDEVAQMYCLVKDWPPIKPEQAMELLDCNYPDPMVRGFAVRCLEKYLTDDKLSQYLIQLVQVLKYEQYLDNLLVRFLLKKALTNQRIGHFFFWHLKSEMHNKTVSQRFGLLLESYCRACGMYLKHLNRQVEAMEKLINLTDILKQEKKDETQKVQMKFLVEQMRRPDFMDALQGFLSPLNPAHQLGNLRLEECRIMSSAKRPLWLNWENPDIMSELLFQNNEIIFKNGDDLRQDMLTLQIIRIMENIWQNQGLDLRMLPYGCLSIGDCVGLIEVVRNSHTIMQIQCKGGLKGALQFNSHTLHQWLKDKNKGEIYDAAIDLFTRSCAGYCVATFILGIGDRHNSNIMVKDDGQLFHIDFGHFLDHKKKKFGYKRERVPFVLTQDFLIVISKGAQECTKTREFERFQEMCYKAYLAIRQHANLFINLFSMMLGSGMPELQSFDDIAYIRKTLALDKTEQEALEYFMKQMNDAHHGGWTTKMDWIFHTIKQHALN
T10 sequence (Q86UE8 whole entry): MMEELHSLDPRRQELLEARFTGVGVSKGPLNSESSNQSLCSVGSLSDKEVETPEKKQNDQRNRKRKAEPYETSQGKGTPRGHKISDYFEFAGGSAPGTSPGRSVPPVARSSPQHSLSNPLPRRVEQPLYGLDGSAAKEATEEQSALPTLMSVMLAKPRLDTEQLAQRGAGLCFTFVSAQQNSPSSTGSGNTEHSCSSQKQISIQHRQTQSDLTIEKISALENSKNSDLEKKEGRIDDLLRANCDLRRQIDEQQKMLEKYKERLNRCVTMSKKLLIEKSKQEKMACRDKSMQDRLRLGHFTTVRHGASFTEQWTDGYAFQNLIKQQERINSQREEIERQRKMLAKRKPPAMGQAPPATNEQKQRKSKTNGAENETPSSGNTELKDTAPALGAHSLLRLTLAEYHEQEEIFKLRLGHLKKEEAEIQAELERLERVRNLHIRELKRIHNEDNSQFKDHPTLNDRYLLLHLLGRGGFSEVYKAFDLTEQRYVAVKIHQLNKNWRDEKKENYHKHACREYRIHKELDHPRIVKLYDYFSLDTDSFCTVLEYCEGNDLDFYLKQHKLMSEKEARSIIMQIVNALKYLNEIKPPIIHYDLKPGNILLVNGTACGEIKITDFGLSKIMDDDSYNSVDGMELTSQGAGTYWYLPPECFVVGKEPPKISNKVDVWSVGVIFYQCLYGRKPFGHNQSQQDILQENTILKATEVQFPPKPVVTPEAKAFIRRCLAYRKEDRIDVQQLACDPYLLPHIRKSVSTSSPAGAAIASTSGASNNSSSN
T3 sequence (O14757 whole entry): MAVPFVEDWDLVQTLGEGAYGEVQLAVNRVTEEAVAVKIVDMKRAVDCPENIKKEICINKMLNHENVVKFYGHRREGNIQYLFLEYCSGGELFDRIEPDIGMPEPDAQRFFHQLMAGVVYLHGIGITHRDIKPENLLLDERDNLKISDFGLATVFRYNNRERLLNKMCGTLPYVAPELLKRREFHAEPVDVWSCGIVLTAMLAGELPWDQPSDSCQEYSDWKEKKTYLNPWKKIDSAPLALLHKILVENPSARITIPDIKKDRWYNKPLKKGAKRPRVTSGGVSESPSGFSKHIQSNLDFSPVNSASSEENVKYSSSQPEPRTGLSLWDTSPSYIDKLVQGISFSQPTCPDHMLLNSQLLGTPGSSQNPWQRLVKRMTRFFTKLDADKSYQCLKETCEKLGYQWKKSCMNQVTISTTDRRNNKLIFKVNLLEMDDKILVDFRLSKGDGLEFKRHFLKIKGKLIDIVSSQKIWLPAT
T9 sequence (P36507 whole entry): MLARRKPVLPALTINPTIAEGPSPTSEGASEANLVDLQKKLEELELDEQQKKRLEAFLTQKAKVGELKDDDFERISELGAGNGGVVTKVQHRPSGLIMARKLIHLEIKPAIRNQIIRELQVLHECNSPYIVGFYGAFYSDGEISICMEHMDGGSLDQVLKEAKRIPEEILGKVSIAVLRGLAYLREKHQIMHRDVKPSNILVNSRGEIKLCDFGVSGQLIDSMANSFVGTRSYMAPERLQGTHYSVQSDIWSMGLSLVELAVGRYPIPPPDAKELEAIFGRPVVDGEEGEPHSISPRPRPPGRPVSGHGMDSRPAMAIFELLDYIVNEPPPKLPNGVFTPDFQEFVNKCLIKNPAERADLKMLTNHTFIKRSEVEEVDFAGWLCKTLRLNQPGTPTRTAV
T8 sequence (P57058 whole entry): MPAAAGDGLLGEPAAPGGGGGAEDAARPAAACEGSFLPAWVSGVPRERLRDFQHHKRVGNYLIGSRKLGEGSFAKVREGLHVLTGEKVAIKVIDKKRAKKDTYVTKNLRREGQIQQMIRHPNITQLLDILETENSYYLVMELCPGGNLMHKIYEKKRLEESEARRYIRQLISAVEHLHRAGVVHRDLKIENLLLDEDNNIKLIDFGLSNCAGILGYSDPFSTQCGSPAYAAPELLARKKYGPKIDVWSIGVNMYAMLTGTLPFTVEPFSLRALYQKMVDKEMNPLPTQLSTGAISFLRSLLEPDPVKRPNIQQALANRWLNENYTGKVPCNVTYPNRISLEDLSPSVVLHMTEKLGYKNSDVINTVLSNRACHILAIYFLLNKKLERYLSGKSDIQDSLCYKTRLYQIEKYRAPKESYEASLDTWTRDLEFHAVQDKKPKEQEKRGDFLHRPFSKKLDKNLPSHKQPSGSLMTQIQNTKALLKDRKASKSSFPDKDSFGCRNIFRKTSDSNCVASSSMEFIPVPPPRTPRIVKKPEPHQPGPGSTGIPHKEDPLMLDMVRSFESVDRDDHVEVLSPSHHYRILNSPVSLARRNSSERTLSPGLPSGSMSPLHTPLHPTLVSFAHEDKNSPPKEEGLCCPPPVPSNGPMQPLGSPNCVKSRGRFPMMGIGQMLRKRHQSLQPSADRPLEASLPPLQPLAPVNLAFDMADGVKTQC

With `N[C@H]1CC[C@H](Nc2cc(-c3cccc(NCc4cccc(F)c4)n3)c(Cl)cn2)CC1` [i-CDK9, N2′-(trans-4-aminocyclohexyl)-5′-chloro-N6-(3-fluorobenzyl)-2,4′-bipyridine-2′,6-diamine] the remaining binding at 1 µM ([1]; 1 µM i-CDK9) was 53%, the remaining binding at 10 µM ([1]; 10 µM i-CDK9) was 100% and the remaining binding at 1 µM [2] was 100%. The “% Retention on Solid Support” value ([3]; 1 µM i-CDK9) was 100%, the “% Retention on Solid Support” value ([3]; 10 µM i-CDK9) was 82% and the “% Retention on Solid Support” value ([4]; 1 µM i-CDK9) was 100%. The “% Retention on Solid Support” value ([4]; 10 µM i-CDK9) was 100%, the “% Retention on Solid Support” value ([5]; 1 µM i-CDK9) was 100% and the “% Retention on Solid Support” value ([5]; 10 µM i-CDK9) was 89%. The remaining binding at 1 µM ([6]; 1 µM i-CDK9) was 100%, the remaining binding at 10 µM ([6]; 10 µM i-CDK9) was 100% and the remaining binding at 1 µM ([7]; 1 µM i-CDK9) was 100%. It also gave a remaining binding at 10 µM ([7]; 10 µM i-CDK9) of 100%, a remaining binding at 1 µM ([8]; 1 µM i-CDK9) of 86% and a remaining binding at 10 µM ([8]; 10 µM i-CDK9) of 52%. It also gave a remaining binding at 1 µM ([9]; 1 µM i-CDK9) of 96%, a remaining binding at 10 µM ([9]; 10 µM i-CDK9) of 100% and a remaining binding at 1 µM ([10]; 1 µM i-CDK9) of 100%. It also gave a remaining binding at 10 µM ([10]; 10 µM i-CDK9) of 100%.
